These results are taken from patent publication US7557144B1, “Modulation of protein expression using carbocyclic aryl alkenoic acid derivatives” (The Johns Hopkins University, priority 2000, dated 2009).

The test system of one data set is calnexin. Put plainly: Calnexin immunoblot of IB3-1 lysates. Type of data set: cell-based, human. To be noted: IB3-1 cells, increasing concentrations of 4-PBA. The procedure:
(§1) 3. Immunoblot analysis. Whole cell lysates were prepared by solubilization with 2% SDS at 95° C. Protein concentration in the lysates was determined using the Bio-Rad DC assay reagents with bovine plasma g-globulin as a standard (Bio-Rad Laboratories, Hercules, Calif.). Equal amounts of protein was resolved on 5, 7, 8, or 9% SDS-polyacrylamide gels. Proteins were transferred to nitrocellulose, and immunodetection was performed as previously described (25). Nonspecific binding was blocked by incubation of the nitrocellulose with 2% gelatin or 10% nonfat day milk. Primary antisera and secondary antibodies were applied in buffer containing 0.4% BSA overnight at 4° C. and for 1 h at room temperature, respectively. Detection of immunoreactivity was performed with the enhanced chemiluminescence reagent (ECL, Amer-sham) and fluorography. Recombinant bovine Hsc70 ([…]) was purchased from Stressgen Biotechnologies for use in constructing a standard curve of Hsc70 immunoreactivity. Immunoblots containing the bovine Hsc70 were probed with the Hsc70-specific polyclonal antiserum.
Whether 4-PBA would regulate expression of a number of other molecular chaperones in IB3-1 cells (FIG. 2) was assessed next. […] Hsp90 is required for correct folding and function of a number of cellular proteins (16). […]
A general note: A western blot detects proteins with antibodies after separation by electrophoresis.

Details of data set [1]: fraction of administered 4-PBA excreted as PAG in the urine: unit not given here. The conditions noted are these: cited from earlier work.
The subject of data set [2] is CFTR. The experiment in a line: Nasal potential difference in CF patients. Type of data set: in vivo, human. An excerpt:
Standard methods for detecting and quantifying electrical potentials from nasal epithelia have been reported. See e.g., Zeitlin, P. L. (2000) in Mol. Therapy 1: 1; Noone, P. G. et al. (2000) in Mol. Therapy 1: 105-114; Caplen, J. J. et al. (1995) Nat. Med. 1: 39-46; Middleton, P. G. (1994) in Eur. Respir. 7: 2050-2056; the disclosures of which are hereby incorporated by reference.
This is consistent with the presence of a functional CFTR in the nasal epithelial cell surface.
FIG. 16D the same individual as in […] 18 days on 4-phenylbutyrate.

The next data set has as its system Hsp70. Put plainly: Hsp70 immunoblot of IB3-1 lysates. Format: cell-based, human. To be noted: IB3-1 cells. The procedure: as §1
(§2) Whether 4-PBA would regulate expression of a number of other molecular chaperones in IB3-1 cells (FIG. 2) was assessed next. […] Hsp90 is required for correct folding and function of a number of cellular proteins (16). […] Hsp70 (Hsp72) expression is induced by heat shock and the presence of denatured proteins within the eukaryotic cell (16). In Escherichia coli, the Hsp70 homologue DnaK and the Hsp40 homologue DnaJ act to promote protein folding (16). Hdj2 is the member of the Hsp40 family that specifically interacts with and regulates the ATPase activity of Hsc70. Hdj2 also interacts with CFTR during CFTR translation (26).
FIGS. 2A-2E are more specifically explained as follows. […] IB3-1 cells were treated as described for FIG. 1. Immunoblotting with 5 μg of IB3-1 SDS lysate protein was performed as described in the foregoing General Comments.
FIGS. 5A-C are explained in more detail as follows. […] A: IB3-1 cells were incubated at 37° C. for 2 days under indicated conditions. Cellular homogenates were prepared in 2% SDS as described in METHODS, and 5 μg of total cellular protein were analyzed by immunoblot for Hsc70 using rabbit polyclonal antiserum, Hsp90, Hsp70, Hsp40 as described above under General Comments. Con, control. B and C: densitometric analysis of Hsc70 expression (B) and Hsp90, Hsp70, and Hsp40 expression (C) was performed as described for FIG. 1. B: means 6 SE of density in 4 independent experiments.

Another data set concerns Hsc70. Put plainly: Hsc70 immunoblot of IB3-1 whole cell lysates. Type of data set: cell-based, human. The conditions noted are these: IB3-1 cells. The procedure:
as §1

The test system of data set [3] is CFTR. To be noted: IB3-1 cells; previously shown (ref. 30); cited from earlier work.
The test system of another data set is ΔF508-CFTR/Hsc70 complex. Put plainly: Immunoprecipitation of Hsc70 and coimmunoprecipitation of CFTR from treated IB3-1 cells. Format: cell-based, human. The conditions noted are these: 2 days.
Another data set concerns Hsp90. Put plainly: Hsp90 immunoblot of IB3-1 lysates. Type of data set: cell-based, human. To be noted: IB3-1 cells, increasing concentrations of 4-PBA. The procedure: as §1, §2
FIGS. 2A-2E are more specifically explained as follows. […]
FIGS. 5A-C are explained in more detail as follows. […] Cellular homogenates were prepared in 2% SDS as described in METHODS, and 5 μg of total cellular protein were analyzed by immunoblot for Hsc70 using rabbit polyclonal antiserum, Hsp90, Hsp70, Hsp40 as described above under General Comments. […]

For data set [4], the system named is CFTR. To be noted: homozygous ΔF508 patients taking the drug for 1 week; Rubenstein et al. 1998; cited from earlier work.
Where [5] appears, read: increasing concentrations of 4-PBA.

Each structure is given as a SMILES string.

For `O=C(O)CCCc1ccccc1` [4-PBA, 4-phenylbutyric acid], the expression of calnexin result with calnexin was “did not affect”. Besides, in data set [1] (in vivo), the “fraction of administered 4-PBA excreted as PAG in the urine” value is “Ninety”. The “in vivo metabolic conversion” value in data set [1] (then conjugated with glutamine to phenacetylglutamine, excreted in urine (ref. 6)) was “rapidly and completely converted by β-oxidation to phenylacetate”. The “nasal potential difference response to low chloride/isoproterenol” value in the data set on CFTR [2] (CF patient (deltaF508 homozygous), 20 gm daily for 7 days) was “induce chloride transport”. Further, in the data set with CFTR [2] (same CF patient after 18 days on 4-phenylbutyrate), the “nasal potential difference response to low chloride/isoproterenol” value is “continues to sustain chloride transport”. Besides, the “expression of Hsp70” value with Hsp70 (increasing concentrations of 4-PBA (Example 1)) is recorded as “did not affect”. Besides, in the data set on Hsp70 (increasing concentrations of 4-phenylbutyrate (Example 11, FIG. 14)), the Hsp70 expression result is listed as “induces Hsp70 in a dose-dependent manner”. Further, the “decrease in Hsc70 immunoreactivity” value in the data set with Hsc70 (4-PBA 2 days, densitometry) is approximately 50%. For the same compound, the “total Hsc70 immunoreactivity in whole cell lysates” value in the data set on Hsc70 (increasing concentrations of 4-PBA, 2 days) is given as “declined in a dose-dependent fashion”. For the same compound, the “4-PBA concentration leading to increased overall expression and appearance of mature CFTR” value with CFTR [3] is recorded as more than 0.1 mM. The “4-PBA concentration at which CFTR was undetectable in the immunoprecipitates” value with ΔF508-CFTR/Hsc70 complex is more than 1 mM. Moreover, in the data set with ΔF508-CFTR/Hsc70 complex (setting [5]), the “immunoprecipitable Hsc70” value was “decreased amounts” and the “immunoreactive CFTR recovered in complex with Hsc70” value is recorded as “less immunoreactive CFTR was recovered”. Also, in the data set on Hsp90, the “expression of Hsp90” value is “did not affect”. The “chloride transport in nasal potential difference measurements” value with CFTR [4] is recorded as “increase chloride transport”.
